Source: US11479802B2, “Assays for screening activity of modulators of members of the hydroxy steroid (17-beta) dehydrogenase (HSD17B) family” (Regeneron Pharmaceuticals, Inc., priority 2017, dated 2022)

Assays:
Format in all cases: biochemical
HSD17B1 = target: T1, HSD17B1 (Homo sapiens, UniProt P14061); assay: Steroid substrate panel against HSD17B family member B1; conditions: substrate at 50 μM; estradiol set as 100%
T1 construct: made in house
T1 sequence (P14061 1-328): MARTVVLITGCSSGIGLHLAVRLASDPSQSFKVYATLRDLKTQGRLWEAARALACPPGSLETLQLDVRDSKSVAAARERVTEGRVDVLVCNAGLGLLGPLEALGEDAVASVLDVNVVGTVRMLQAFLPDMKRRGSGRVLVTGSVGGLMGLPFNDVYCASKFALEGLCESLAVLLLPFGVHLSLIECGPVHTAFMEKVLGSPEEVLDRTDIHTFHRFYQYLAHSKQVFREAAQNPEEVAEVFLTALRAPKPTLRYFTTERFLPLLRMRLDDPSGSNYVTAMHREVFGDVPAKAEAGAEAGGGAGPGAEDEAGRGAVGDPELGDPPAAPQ
Experimental: (§1) To understand the functional consequences of premature truncation of the HSD17B13 protein due to rs72613567:TA (the associated variant, rs72613567, is an insertion of an adenine adjacent to the donor splice site of exon six (TA allele)), the enzymatic activity of isoforms A and D was evaluated in vitro using recombinant protein and nicotinamide […] dinucleotide as cofactor. Reactions were performed in a final volume of 40 μl of assay buffer (0.2 M Tris-HCl, pH 7.5) which contained 500 μM NAD^+, 5 μM bioactive lipid or 50 μM steroid (all in a final concentration of 5% DMSO), and 100 ng of recombinant human HSD17B13. Reactions were incubated for 3 hours, at 23° C., after which an equal volume detection reagent was added. Following a 1 hour incubation at 23° C., the relative light units (RLUs) were measured on an Envision Plate Reader (Perkin Elmer). Raw RLU values were normalized as percent of control (50 μM estradiol) following subtraction of negative control (5% DMSO) using the following formula: Percent of control (POC)=100×(Sample (RLU)−Negative CTRLaverage)/(Positive CTRLaverage−Negative CTRLaverage).
(§2) In order to determine specificity of compounds with inhibitory activity against HSD17B13, assays for selected members of the HSD17B family which includes HSD17B1-HSD17B14 were established. As a first step, selected family members were expressed, purified and tested for activity a using a steroid substrate panel. Substrates from the steroid panel were tested at 50 μM, using the standard assay protocol. Activity against the substrates for each HSD17B family member were normalized to Percent of Control (POC). The control, estradiol, was set as 100%.

HSD17B2 = target: T2, HSD17B2 (Homo sapiens, UniProt P37059); assay: Steroid substrate panel against HSD17B family member B2; conditions: substrate at 50 μM; estradiol set as 100%
T2 construct: made in house
T2 sequence (P37059 1-387): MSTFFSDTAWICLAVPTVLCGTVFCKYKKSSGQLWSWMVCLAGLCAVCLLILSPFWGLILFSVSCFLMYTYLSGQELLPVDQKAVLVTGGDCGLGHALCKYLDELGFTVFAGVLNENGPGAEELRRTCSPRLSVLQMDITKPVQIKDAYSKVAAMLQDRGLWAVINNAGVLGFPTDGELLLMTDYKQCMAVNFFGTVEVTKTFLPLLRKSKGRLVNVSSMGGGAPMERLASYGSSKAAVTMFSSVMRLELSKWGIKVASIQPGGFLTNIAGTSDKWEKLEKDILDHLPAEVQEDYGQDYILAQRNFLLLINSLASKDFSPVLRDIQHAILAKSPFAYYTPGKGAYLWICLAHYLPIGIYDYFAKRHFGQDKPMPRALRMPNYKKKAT
Experimental: as §1, §2

HSD17B4 = target: T3, HSD17B4 (Homo sapiens, UniProt P51659); assay: Steroid substrate panel against HSD17B family member B4; conditions: substrate at 50 μM; estradiol set as 100%
T3 construct: made in house
T3 sequence (P51659 1-736): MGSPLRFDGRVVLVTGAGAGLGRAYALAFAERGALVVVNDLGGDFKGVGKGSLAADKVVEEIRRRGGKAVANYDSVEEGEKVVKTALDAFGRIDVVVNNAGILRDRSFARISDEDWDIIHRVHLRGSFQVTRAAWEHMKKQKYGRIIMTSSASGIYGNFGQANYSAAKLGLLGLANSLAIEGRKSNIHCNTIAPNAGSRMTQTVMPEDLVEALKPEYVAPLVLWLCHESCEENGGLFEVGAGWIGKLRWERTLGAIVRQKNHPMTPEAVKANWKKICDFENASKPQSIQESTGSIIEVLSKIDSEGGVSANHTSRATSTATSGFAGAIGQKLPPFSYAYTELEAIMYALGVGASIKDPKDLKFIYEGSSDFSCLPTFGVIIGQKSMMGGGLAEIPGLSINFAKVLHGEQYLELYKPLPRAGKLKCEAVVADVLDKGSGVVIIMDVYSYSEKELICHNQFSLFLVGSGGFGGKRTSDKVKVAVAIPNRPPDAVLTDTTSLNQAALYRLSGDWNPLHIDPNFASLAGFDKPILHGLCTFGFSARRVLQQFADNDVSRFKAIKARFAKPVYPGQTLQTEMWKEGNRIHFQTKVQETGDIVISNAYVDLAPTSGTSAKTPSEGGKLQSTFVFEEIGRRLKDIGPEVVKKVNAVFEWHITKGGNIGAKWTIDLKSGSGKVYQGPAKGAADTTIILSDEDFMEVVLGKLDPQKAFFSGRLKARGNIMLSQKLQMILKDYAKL
Experimental: as §1, §2

HSD17B5 = target: T4, HSD17B5 (Homo sapiens, UniProt P42330); assay: Steroid substrate panel against HSD17B family member B5; conditions: substrate at 50 μM; estradiol set as 100%
T4 construct: made in house
T4 sequence (P42330 1-323): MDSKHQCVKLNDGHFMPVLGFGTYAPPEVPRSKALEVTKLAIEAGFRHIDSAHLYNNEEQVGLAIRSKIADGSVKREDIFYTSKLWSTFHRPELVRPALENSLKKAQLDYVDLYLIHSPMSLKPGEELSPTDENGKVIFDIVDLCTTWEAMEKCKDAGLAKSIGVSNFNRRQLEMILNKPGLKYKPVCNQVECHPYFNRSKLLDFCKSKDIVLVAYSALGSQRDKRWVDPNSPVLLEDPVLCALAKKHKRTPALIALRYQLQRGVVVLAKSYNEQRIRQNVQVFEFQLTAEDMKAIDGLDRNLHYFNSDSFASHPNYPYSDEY
Experimental: as §1, §2

HSD17B10 = target: T5, HSD17B10 (Homo sapiens, UniProt Q99714); assay: Steroid substrate panel against HSD17B family member B10; conditions: substrate at 50 μM; estradiol set as 100%
T5 construct: made in house
T5 sequence (Q99714 1-261): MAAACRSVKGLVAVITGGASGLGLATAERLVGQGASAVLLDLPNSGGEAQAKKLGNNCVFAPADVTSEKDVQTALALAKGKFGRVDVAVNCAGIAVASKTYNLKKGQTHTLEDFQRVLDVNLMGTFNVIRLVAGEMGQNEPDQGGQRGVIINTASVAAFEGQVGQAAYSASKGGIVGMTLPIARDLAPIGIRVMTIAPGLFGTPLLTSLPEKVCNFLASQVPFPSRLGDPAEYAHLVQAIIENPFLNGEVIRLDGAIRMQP
Experimental: as §1, §2

HSD17B11 = target: T6, HSD17B11 (Homo sapiens, UniProt Q8NBQ5); assay: Steroid substrate panel against HSD17B family member B11; conditions: substrate at 50 μM; estradiol set as 100%
T6 construct: made in house
T6 sequence (Q8NBQ5 20-300): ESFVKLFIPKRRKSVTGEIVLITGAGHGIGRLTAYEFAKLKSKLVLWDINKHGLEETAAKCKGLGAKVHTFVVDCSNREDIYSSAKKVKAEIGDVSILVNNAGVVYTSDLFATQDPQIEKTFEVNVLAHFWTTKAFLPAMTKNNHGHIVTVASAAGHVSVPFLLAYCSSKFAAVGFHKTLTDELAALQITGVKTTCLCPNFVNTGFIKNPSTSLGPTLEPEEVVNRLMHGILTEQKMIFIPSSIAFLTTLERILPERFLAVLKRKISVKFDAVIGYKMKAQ
Experimental: as §1, §2

human HSD17B13 = target: T7, human HSD17B13 (Homo sapiens, UniProt Q7Z5P4); assay: Substrate screening of steroid and bioactive lipid libraries against purified recombinant HSD17B13 (NADH-linked luciferase assay); conditions: Steroid Library, 50 μM steroid; for HSD17B13 Enzymatic Activity Relative Light Units: 500 μM NAD+, 100 ng enzyme, 3 hours at 23° C.; for HSD17B13 Enzymatic Activity Percent Estradiol Control: normalized to 50 μM estradiol after subtraction of 5% DMSO
T7 sequence (Q7Z5P4 20-300): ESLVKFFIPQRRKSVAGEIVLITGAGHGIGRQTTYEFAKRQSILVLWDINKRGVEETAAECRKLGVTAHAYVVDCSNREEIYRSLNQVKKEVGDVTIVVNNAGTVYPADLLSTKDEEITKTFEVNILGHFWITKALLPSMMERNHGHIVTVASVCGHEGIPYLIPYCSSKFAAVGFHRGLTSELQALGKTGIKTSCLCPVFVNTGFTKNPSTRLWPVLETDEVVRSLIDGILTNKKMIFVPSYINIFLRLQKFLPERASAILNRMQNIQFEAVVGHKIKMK
Outline: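 Recombinant human HSD17B13 (100 ng) incubated 3 h at 23° C in 0.2 M Tris-HCl pH 7.5 with 500 μM NAD+ and 5 μM bioactive lipid or 50 μM steroid (5% DMSO). NADH measured by luciferase luminescence after 1 h; values as percent of 50 μM estradiol control after 5% DMSO subtraction.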

Row | SMILES | Percent of Control (POC), B1 (HSD17B1) | Percent of Control (POC), B2 (HSD17B2) | Percent of Control (POC), B4 (HSD17B4) | Percent of Control (POC), B5 (HSD17B5) | Percent of Control (POC), B10 (HSD17B10) | Percent of Control (POC), B11 (HSD17B11) | HSD17B13 Enzymatic Activity Relative Light Units (human HSD17B13) | HSD17B13 Enzymatic Activity Percent Estradiol Control (human HSD17B13)
1 | C[C@]12CC[C@@H](O)C[C@@H]1CC[C@@H]1[C@@H]2CC[C@]2(C)[C@@H](O)CC[C@@H]12 [3a-androstanediol] | 0.0% | 6.2% | 16.4% | 196% | −0.4% | 0.0% | – | –
2 | C[C@]12CC[C@@H](O)C[C@@H]1CC[C@@H]1[C@@H]2[C@@H](O)C[C@@]2(C)[C@H]1CC[C@]2(O)C(=O)CO [5alpha-Tetrahydrocortisol] | −0.1% | 3.1% | 0.2% | 0% | 46.3% | 0.0% | 229040 RLU | 1.20%
3 | C[C@]12CC[C@H](O)C[C@@H]1CC[C@@H]1[C@@H]2CC[C@]2(C)[C@@H](O)CC[C@@H]12 [5alpha-androstane-3beta,17beta-diol] | 0.3% | 42.5% | 38.9% | 0% | 1.2% | 0.0% | 398600 RLU | 4.16%
4 | CC[C@H]1[C@@H](O)[C@@H]2[C@H](CC[C@]3(C)[C@@H]([C@H](C)CCC(=O)O)CC[C@@H]23)[C@@]2(C)CC[C@@H](O)C[C@@H]12 [6-ethylchenodeoxycholic acid] | 0.0% | 0.1% | 4.6% | 192% | 39.3% | 0.0% | 76200 RLU | −1.47%
5 | C[C@]12CC[C@@H](O)C[C@@H]1CC[C@@H]1[C@@H]2C(=O)C[C@]2(C)C(=O)CC[C@@H]12 [11-oxo-androsterone] | 0.0% | 0.0% | 0.4% | 0% | 31.4% | 0.0% | 196640 RLU | 0.63%
6 | C[C@]12CC[C@@H](O)C[C@H]1CC[C@@H]1[C@@H]2C(=O)C[C@]2(C)C(=O)CC[C@@H]12 [11-oxo-etiocholanolone] | −0.1% | 0.0% | 0.2% | 13% | 30.7% | 0.0% | 195960 RLU | 0.62%
7 | C[C@]12CC[C@@H](O)C[C@@H]1CC[C@@H]1[C@@H]2CC[C@]2(C)C(=O)[C@H](O)C[C@@H]12 [16alpha-Hydroxyandrosterone] | 0.0% | 1.5% | 0.5% | 45% | 69.7% | 0.0% | 221840 RLU | 1.07%
8 | C[C@]12CC[C@@H](O)C[C@@H]1CC[C@@H]1[C@@H]2CC[C@]2(C)C(=O)CC[C@@H]12 [Androsterone] | 0.0% | 1.0% | 0.3% | 0% | 91.0% | 0.0% | 158120 RLU | −0.04%
9 | CC(=O)OCC(=O)[C@H]1CC[C@H]2[C@@H]3CCC4=CC(=O)CC[C@]4(C)[C@H]3[C@@H](O)C[C@]12C [Corticosterone 21-acetate] | −0.1% | 0.0% | 0.1% | 0% | 0.3% | 32.2% | 190160 RLU | 0.52%
